In patent publication US7884115B2, “Methods and compositions for the treatment of pain and other neurological conditions” (Allergan, Inc., priority 2004, dated 2011):

How the values were obtained:
Assay type in all cases: in vivo
[1] = tested on: allodynia induced by N-methyl-D-aspartate (NMDA); test: Mouse NMDA model of allodynia
Protocol: (§1) In variants of this model, allodynia can be induced using 100 ng N-methyl-D-aspartate (NMDA) in DMSO intrathecally, or IP phenylephrine (PE) 100 ng/kg formulated in dH2O. In either model, the compounds are formulated in d-H2O and given in a volume of 1 ml/kg body weight for intraperitoneal (IP) dosing. Six mice per group are rendered allodynic by injection of one of the following agents: 300 ng/kg sulprostone in DMSO IP, 100 ng/kg phenylephrine (PE) in dH2O IP, or 100 ng NMDA in DMSO intrathecally (IT). Fifteen minutes before administration of the allodynia-inducing agents, the experimental mice are given 1 mg/kg NB-DNJ. Thirty (30) minutes following administration of NB-DNJ, the allodynic response is monitored as described by brushing the flank of each mouse with a paint brush. Six mice per group are given one of the following: given 100 μg/kg NB-DNJ, 300 μg/kg NB-DNJ, 1 mg/kg NB-DNJ, or 3 mg/kg 1-deoxynojirimycin. After 15 minutes the mice are rendered allodynic by injection of 200 ng NMDA in DMSO IT. Starting thirty (30) minutes following administration of NB-DNJ, the allodynic response of each mouse is monitored by brushing the flank of the mouse with a paint brush. Five to six mice per group are rendered allodynic by injection of one of the following: 300 ng/kg sulprostone IP, 100 ng/kg phenylephrine (PE) IP, or 100 ng NMDA intrathecally (IT). Fifteen minutes prior to the induction of allodynia, the mice are given D-glucaro-delta-lactam IP at […], or 1 mg/kg. PE or NMDA-treated mice are given 1 mg/kg D-glucaro-delta-lactam IP.

[2] = tested on: allodynia induced by phenylephrine (PE); test: Mouse phenylephrine (PE) model of allodynia
Protocol: as §1, with “brush.” for “brush. Six mice per group are given one of the following: given 100 μg/kg NB-DNJ, 300 μg/kg NB-DNJ, 1 mg/kg NB-DNJ, or 3 mg/kg 1-deoxynojirimycin. After 15 minutes the mice are rendered allodynic by injection of 200 ng NMDA in DMSO IT. Starting thirty (30) minutes following administration of NB-DNJ, the allodynic response of each mouse is monitored by brushing the flank of the mouse with a paint brush.”

[3] = tested on: tactile allodynia in ligated Chung rats; test: Chung model (spinal nerve ligation, tactile allodynia, von Frey hairs); conditions: Chung rat, 30 min after administration
Source text: One standard model for chronic pain involves the surgical ligation of the L5 (and optionally the L6) spinal nerves on one side in experimental animals. Rats recovering from the surgery gain weight and display a level of general activity similar to that of normal rats. However, these rats develop abnormalities of the foot, wherein the hindpaw is moderately everted and the toes are held together. More importantly, the hindpaw on the side affected by the surgery appears to become sensitive to pain from low-threshold mechanical stimuli, such as that producing a faint sensation of touch in a human, within about 1 week following surgery. […]
Tactile allodynia is measured prior to and 30 minutes after drug administration using von Frey hairs that are a series of fine hairs with incremental differences in stiffness. […] The applied force has been calculated to range from 0.41 to 15.1 grams. […] The 50% paw withdrawal threshold is determined using the method of Dixon, W. J., Ann. […] The post-drug threshold is compared to the pre-drug threshold and the percent reversal of tactile sensitivity is calculated based on a normal threshold of 15.1 grams.
Control rats are given the vehicle alone. Thirty (30) minutes following administration rats are brushed with Von Freys hairs and tactile allodynia is measured using the method of Dixon, as described above. […]

Compound	analgesic effect ([1]; 1 mg/kg IP, 15 min before NMDA 100 ng IT, FIG. 4)	analgesic effect ([2]; 1 mg/kg IP, 15 min before PE 100 ng/kg IP, FIG. 4)	reversal of induced allodynia (reduction in allodynic response to Von Freys hair stimulus) ([3]; 1 mg/kg intraperitoneally, FIG. 6)	pain reduction at different doses ([1]; 100 μg/kg, 300 μg/kg, 1 mg/kg, 15 min before 200 ng NMDA IT, FIG. 2)	reversal of the allodynic response ([1]; 1 mg/kg given 15 min before NMDA 100 ng IT, FIG. 1)	reversal of the allodynic response ([2]; 1 mg/kg given 15 min before PE 100 ng/kg IP, FIG. 1)	analgesic activity (allodynic reversal) ([3]; 1 mg/kg and 3 mg/kg intraperitoneally, FIG. 5)
O=C(O)[C@H]1NC(=O)[C@H](O)[C@@H](O)[C@@H]1O [D-glucaro-delta-lactam]	able to achieve an analgesic effect	able to achieve an analgesic effect	approximately 70%				
CCCCN1C[C@H](O)[C@@H](O)[C@H](O)[C@H]1CO [NB-DNJ, N-butyl-1-deoxy-nojirimycin]				dose response	significant reversal	no reversal	analgesic
